Laboratory results published in ChEMBL document CHEMBL1132082, “Nonsteroidal androgen receptor agonists based on 4-(trifluoromethyl)-2H-pyrano[3,2-g]quinolin-2-one” (Bioorg Med Chem Lett, 1999).

How the values were obtained:
[1] = molecular target: T1, Progesterone receptor (Homo sapiens) (UniProt P06401); test: (§1) In vitro antagonistic activity against human progesterone receptor (hPR); assay type: functional
T1 sequence (whole entry): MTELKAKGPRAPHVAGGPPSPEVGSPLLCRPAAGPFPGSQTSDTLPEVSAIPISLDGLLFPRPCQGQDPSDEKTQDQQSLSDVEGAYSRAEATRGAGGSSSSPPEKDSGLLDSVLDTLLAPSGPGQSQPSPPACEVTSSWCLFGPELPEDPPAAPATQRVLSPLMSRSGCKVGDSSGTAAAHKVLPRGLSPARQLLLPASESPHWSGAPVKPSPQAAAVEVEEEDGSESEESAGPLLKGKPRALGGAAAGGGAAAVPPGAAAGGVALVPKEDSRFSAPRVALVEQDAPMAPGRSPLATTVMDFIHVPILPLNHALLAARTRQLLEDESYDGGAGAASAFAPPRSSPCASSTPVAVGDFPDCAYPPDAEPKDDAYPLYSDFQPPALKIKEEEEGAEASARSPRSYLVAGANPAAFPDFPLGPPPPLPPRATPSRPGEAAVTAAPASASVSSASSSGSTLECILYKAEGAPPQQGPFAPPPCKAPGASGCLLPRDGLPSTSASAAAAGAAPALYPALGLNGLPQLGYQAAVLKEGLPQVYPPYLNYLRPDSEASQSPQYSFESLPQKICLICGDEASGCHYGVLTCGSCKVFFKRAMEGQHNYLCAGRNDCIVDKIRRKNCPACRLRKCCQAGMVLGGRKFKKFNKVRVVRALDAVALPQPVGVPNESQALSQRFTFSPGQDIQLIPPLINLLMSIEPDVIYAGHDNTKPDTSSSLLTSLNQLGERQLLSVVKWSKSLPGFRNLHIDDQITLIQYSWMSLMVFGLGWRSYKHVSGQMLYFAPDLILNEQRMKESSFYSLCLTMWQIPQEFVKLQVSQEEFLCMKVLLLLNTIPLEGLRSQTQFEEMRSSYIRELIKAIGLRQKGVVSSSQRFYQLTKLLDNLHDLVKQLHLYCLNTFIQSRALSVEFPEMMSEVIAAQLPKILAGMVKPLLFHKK

[2] = molecular target: T2, Androgen receptor (Homo sapiens, UniProt P10275); test: biochemical
T2 sequence (P10275 whole entry): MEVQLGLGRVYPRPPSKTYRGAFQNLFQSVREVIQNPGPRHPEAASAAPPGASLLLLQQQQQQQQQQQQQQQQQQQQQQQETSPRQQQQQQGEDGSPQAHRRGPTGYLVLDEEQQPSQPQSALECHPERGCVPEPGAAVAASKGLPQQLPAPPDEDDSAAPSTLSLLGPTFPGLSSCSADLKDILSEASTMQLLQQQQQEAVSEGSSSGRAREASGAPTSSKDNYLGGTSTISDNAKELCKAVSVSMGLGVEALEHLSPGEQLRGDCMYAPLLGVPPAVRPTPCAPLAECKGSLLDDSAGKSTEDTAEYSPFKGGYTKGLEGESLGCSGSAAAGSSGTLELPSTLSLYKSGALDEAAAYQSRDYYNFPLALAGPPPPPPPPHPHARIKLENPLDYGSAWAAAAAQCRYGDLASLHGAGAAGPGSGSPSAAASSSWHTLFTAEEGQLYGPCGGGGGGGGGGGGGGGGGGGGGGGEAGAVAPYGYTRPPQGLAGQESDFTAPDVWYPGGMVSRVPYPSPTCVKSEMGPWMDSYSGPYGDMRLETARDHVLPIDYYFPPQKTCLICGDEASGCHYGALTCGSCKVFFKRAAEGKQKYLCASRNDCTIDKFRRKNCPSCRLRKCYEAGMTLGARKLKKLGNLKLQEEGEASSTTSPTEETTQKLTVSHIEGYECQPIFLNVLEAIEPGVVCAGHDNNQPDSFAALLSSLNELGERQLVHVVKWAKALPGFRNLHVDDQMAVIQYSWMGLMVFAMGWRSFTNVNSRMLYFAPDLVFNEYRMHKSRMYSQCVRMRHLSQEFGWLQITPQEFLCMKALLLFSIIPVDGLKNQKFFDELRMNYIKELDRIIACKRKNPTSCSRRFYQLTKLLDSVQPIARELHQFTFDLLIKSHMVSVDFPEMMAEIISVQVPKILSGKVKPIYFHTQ
Description: In vitro binding affinity at human androgen receptor transfected into COS cells.

[3] = molecular target: T3, Estrogen receptor (Homo sapiens, UniProt Q92731+P03372); test: In vitro antagonistic activity against human estrogen receptor (hER); not active; assay type: functional
[4] = molecular target: T2, Androgen receptor
[5] = molecular target: T2, Androgen receptor; remark: listed apart in the source
Description: In vitro agonistic activity against human androgen receptor using cotransfection assay in CV-1 cells.

[6] = molecular target: T3, Estrogen receptor; test: In vitro antagonistic activity against human estrogen receptor (hER); assay type: functional
[7] = molecular target: T4, Progesterone receptor (Homo sapiens, UniProt P06401); test: as §1; assay type: functional
T4 sequence (P06401 whole entry): T1 sequence (whole entry)

[8] = molecular target: T5, Glucocorticoid receptor (Homo sapiens, UniProt P04150); test: In vitro antagonistic activity against human glucocorticoid receptor (hGR); not active; assay type: functional
T5 sequence (P04150 whole entry): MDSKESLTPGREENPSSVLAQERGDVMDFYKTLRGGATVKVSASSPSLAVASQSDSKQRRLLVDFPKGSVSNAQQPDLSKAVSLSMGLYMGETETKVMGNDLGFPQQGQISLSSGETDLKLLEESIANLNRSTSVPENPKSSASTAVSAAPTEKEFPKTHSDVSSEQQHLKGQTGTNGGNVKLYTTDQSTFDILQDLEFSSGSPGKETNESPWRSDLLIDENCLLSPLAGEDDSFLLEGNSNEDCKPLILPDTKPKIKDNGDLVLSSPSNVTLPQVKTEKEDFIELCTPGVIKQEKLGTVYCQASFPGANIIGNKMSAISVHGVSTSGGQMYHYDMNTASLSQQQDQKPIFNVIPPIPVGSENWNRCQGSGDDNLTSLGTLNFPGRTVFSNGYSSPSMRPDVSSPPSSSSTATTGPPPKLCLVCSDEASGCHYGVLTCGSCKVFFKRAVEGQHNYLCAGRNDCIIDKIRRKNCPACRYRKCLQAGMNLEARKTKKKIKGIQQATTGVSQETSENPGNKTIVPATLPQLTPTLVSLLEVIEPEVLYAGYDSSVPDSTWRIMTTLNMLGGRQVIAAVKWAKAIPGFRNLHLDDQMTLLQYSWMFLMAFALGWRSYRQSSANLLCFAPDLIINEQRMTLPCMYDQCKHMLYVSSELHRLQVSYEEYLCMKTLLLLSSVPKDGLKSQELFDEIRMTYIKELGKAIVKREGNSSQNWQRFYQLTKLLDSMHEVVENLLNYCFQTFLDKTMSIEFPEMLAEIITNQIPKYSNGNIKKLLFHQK

Which results are given for `CCC1Nc2cc3oc(=O)cc(C(F)(F)F)c3cc2CC1C` (stereo not given)?
Efficacy [1]: 88%; IC50 [2]: 7 nM; IC50 [3]: > 10000 nM; IC50 [4]: > 10 nM; EC50 [5]: 1 nM; Efficacy [6]: < 20%; IC50 [7]: 440 nM; IC50 [8]: > 10000 nM

Which Efficacy [1] does the source give for `CCC1CCNc2cc3oc(=O)cc(C(F)(F)F)c3cc21` (stereo not given) here?
Its Efficacy is 91%.

And the IC50 [2]?
The IC50 was 1 nM.

What about the IC50 [3] of the same molecule?
Its IC50 is > 10000 nM.

What about the IC50 [4] of the same molecule?
Its IC50 is > 10 nM.

What about the EC50 [5] of the same molecule?
Its EC50 is 2 nM.

What about the Efficacy [6] of the same molecule?
Its Efficacy is < 20%.

What about the IC50 [7] of the same molecule?
Its IC50 is 200 nM.

What about the IC50 [8] of the same molecule?
The IC50 was > 10000 nM.

What does the source list for `O=c1cc(C(F)(F)F)c2cc3c(cc2o1)NCCC3C(F)(F)F` (stereo not given)?
Efficacy [1]: 68%; IC50 [2]: 2 nM; IC50 [3]: > 10000 nM; IC50 [4]: > 10 nM; EC50 [5]: 2 nM; Efficacy [6]: < 20%; IC50 [7]: 270 nM; IC50 [8]: > 10000 nM

What does the source list for `CCCC1CCNc2cc3oc(=O)cc(C(F)(F)F)c3cc21` (stereo not given)?
Efficacy [1]: 89%; IC50 [2]: 5 nM; IC50 [3]: > 10000 nM; IC50 [4]: > 10 nM; EC50 [5]: 5 nM; Efficacy [6]: < 20%; IC50 [7]: 106 nM; IC50 [8]: > 10000 nM

For `CC1CCNc2cc3oc(=O)cc(C(F)(F)F)c3cc21` (stereo not given), which Efficacy [1] is on record?
Its Efficacy is 83%.

What about the IC50 [2] of the same molecule?
The IC50 was 1 nM.

What about the IC50 [3] of the same molecule?
The IC50 was > 10000 nM.

What about the IC50 [4] of the same molecule?
Its IC50 is > 10 nM.

And the EC50 [5]?
Its EC50 is 2 nM.

What about the Efficacy [6] of the same molecule?
Its Efficacy is < 20%.

And the IC50 [7]?
The IC50 was 280 nM.

And the IC50 [8]?
The IC50 was > 10000 nM.
